Where only a bound is given, the exact number is not on record here.

The target in the experiment is T1, human TLR8 (Homo sapiens, UniProt Q9NR97).
T1 construct: host or cells: HEK293 (HEK-Blue hTLR8)
T1 sequence (Q9NR97 27-1041): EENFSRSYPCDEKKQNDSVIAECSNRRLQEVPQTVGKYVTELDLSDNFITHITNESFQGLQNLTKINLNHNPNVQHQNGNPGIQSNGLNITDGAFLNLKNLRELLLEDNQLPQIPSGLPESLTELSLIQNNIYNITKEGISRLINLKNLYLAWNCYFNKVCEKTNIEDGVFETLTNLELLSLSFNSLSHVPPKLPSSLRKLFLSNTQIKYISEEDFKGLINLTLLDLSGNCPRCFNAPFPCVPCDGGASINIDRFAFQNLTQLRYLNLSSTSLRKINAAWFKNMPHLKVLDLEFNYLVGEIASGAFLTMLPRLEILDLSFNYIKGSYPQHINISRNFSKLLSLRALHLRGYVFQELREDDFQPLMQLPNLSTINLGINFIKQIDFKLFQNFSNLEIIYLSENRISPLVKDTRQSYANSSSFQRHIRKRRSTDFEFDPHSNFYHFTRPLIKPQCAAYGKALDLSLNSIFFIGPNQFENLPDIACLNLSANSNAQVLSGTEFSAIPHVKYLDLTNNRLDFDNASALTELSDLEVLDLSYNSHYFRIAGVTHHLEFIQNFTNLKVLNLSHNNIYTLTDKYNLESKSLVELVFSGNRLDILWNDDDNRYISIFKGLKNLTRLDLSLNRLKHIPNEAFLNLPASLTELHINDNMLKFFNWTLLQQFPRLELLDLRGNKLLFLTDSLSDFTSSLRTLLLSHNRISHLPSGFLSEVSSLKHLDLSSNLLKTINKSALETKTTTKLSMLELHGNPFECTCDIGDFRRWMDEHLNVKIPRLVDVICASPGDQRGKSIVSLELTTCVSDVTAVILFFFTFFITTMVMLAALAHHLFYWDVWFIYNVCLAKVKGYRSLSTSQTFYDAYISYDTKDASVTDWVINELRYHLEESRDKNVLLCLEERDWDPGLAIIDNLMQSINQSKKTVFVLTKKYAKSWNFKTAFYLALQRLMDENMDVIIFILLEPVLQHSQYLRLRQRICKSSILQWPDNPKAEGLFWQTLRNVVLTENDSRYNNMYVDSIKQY
In words: HEK293-Blue-hTLR-8 cells assay. Type of experiment: cell-based. The following applies: HEK293-Blue-hTLR8 cells, R848 stimulation, 20 hrs, SEAP reporter; read-out: HEK/hTLR8 IC50. The text has this: HEK293-Blue-hTLR-8 Cells Assay:
A stable HEK293-Blue-hTLR-8 cell line was purchased from InvivoGen (Cat. #: hkb-htlr8, San Diego, Calif., USA). These cells were originally designed for studying the stimulation of human TLR8 by monitoring the activation of NF-κB. A SEAP (secreted embryonic alkaline phosphatase) reporter gene was placed under the control of the IFN-β minimal promoter fused to five NF-κB and AP-1-binding sites. The SEAP was induced by activating NF-κB and AP-1 via stimulating HEK-Blue hTLR8 cells with TLR8 ligands. Therefore the reporter expression was declined by TLR8 antagonist under the stimulation of a ligand, such as R848, for incubation of 20 hrs. The cell culture supernatant SEAP reporter activity was determined using QUANTI-Blue™ kit (Cat. #: rep-qbl, Invivogen, San Diego, Ca, USA) at a wavelength of 640 nm, a detection medium that turns purple or blue in the presence of alkaline phosphatase.
HEK293-Blue-hTLR8 cells were incubated at a density of 250,000˜450,000 cells/mL in a volume of 170 μL in a 96-well plate in Dulbecco's Modified Eagle's medium (DMEM) containing 4.5 g/L glucose, 50 U/mL penicillin, […], […], 2 mM L-glutamine, 10% (v/v) heat-inactivated fetal bovine serum with addition of 20 μL test compound in a serial dilution in the presence of final DMSO at 1% and 10 μL of 60 uM R848 in above DMEM, perform incubation under 37° C. in a CO2 incubator for 20 hrs. Then 20 μL of the supernatant from each well was incubated with 180 μL Quanti-blue substrate solution at 37° C. for 2 hrs and the absorbance was read at 620-655 nm using a spectrophotometer. The signaling pathway that TLR8 activation leads to downstream NF-κB activation has been widely accepted, and therefore similar reporter assay was modified for evaluating TLR8 antagonist.
On to `[2H]c1ccc2c(N3C[C@@H](C)N4Cc5nc(N6CC[C@H](OC)[C@@H](N)C6)ccc5[C@H]4C3)ccc(C#N)c2n1` [Example 14, 5-[(2S,6R)-11-[(3S,4S)-3-amino-4-methoxy-1-piperidyl]-6-methyl-4,7,10-triazatricyclo[7.4.0.02,7]trideca-1(9),10,12-trien-4-yl]-2-deuterio-quinoline-8-carbonitrile], for which the IC50 is less than 0.3 nM.
As for `[2H]c1ccc2c(N3C[C@@H](C)N4Cc5nc(N6CC[C@@](C)(N)C6)ccc5[C@H]4C3)ccc(C#N)c2n1` [Example 7, 5-[(2S,6R)-11-[(3R)-3-amino-3-methyl-pyrrolidin-1-yl]-6-methyl-4,7,10-triazatricyclo[7.4.0.02,7]trideca-1(9),10,12-trien-4-yl]-2-deuterio-quinoline-8-carbonitrile], the figure is less than 0.3 nM; as for `[2H]c1ccc2c(N3C[C@@H](C)N4Cc5nc(N6CCC(C)(N)CC6)ccc5[C@H]4C3)ccc(C#N)c2n1` [Example 19, 5-[(2S,6R)-11-(4-amino-4-methyl-1-piperidyl)-6-methyl-4,7,10-triazatricyclo[7.4.0.02,7]trideca-1(9),10,12-trien-4-yl]-2-deuterio-quinoline-8-carbonitrile], less than 0.3 nM.
For `[2H]c1ccc2c(N3C[C@@H](C)N4Cc5nc(N6CC[C@H](N)[C@@H](OC)C6)ccc5[C@H]4C3)ccc(C#N)c2n1` [Example 12, 5-[(2S,6R)-11-[(3S,4S)-4-amino-3-methoxy-1-piperidyl]-6-methyl-4,7,10-triazatricyclo[7.4.0.02,7]trideca-1(9),10,12-trien-4-yl]-2-deuterio-quinoline-8-carbonitrile], the IC50 is less than 0.3 nM.
For `[2H]c1ccc2c(N3C[C@@H](C)N4Cc5nc(N6CC[C@H]7CNC[C@H]76)ccc5[C@H]4C3)ccc(C#N)c2n1` [Example 10, 5-[(2S,6R)-11-[(3aS,6aS)-3,3a,4,5,6,6a-hexahydro-2H-pyrrolo[2,3-c]pyrrol-1-yl]-6-methyl-4,7,10-triazatricyclo[7.4.0.02,7]trideca-1(9),10,12-trien-4-yl]-2-deuterio-quinoline-8-carbonitrile], the IC50 is less than 0.3 nM.
